Assay results published in US9605064B2, “Methods and compositions for treatment of skin disorders” (AbbVie Biotechnology Ltd, priority 2006, dated 2017).
Marks after values point to notes of the source that are not given here.

Assays:
[1] = test system: patients with moderate to severe chronic plaque psoriasis; conditions: in vivo
[2] = test system: patients with moderate to severe chronic plaque psoriasis; assay: PASI response, open-label extension of CHAMPION (methotrexate to adalimumab transition); type: in vivo, human
[3] = test system: patients with chronic plaque psoriasis; conditions: in vivo
Source text: This 16-week, multicenter, open-label, Phase IIIb trial enrolled patients with chronic plaque psoriasis who were having a suboptimal response to ETN (Physician's Global Assessment [PGA]≧mild with months of therapy, or ≧3 months of therapy and deterioration of efficacy), MTX (PGA≧mild with ≧4 months of therapy), or narrow-band ultraviolet B (NB-UVB) phototherapy (PGA moderate with months of therapy). […] The primary endpoint was the proportion of patients who achieved PGA of clear or minimal at week 16. A secondary endpoint was the proportion achieving ≧1 grade of PGA improvement. Safety was assessed throughout the study. Efficacy analyses were intention to treat, with nonresponder imputation used for missing data. Efficacy and safety results were analyzed overall and for each prior-treatment group.

[4] = test system: patients with moderate to severe plaque psoriasis; assay: EuroQOL 5D (EQ-5D), Phase II trial; type: in vivo, human; conditions: Week 12
Procedure: This study provided the opportunity to evaluate the validity and responsiveness to change in clinical status of PROs instruments. Patients completed the DLQI, SF-36, and EQ-5D questionnaires at baseline and at 12 weeks. Blinded investigators assessed the Psoriasis Area and Severity Index (PASI) scores and the Physician's Global Assessment (PGA) scores of enrolled patients. The responsiveness of the measures to changes in the clinical endpoints from baseline to Week 12 was assessed. Estimates of minimum important differences (MID) were derived. All analyses were performed with blinded data; findings and conclusions were not biased based on treatment condition.
Three PROs measures were used in the study and are the subject of the analyses reported here. All PROs measures were assessed at baseline and at Week 12 (or early termination, if applicable).
The EQ-5D [17,18] is a six-item, preference-based instrument designed to measure general health status. The EQ-5D has two sections: The first consists of five items to assess degree of physical functioning (mobility, self-care, usual activities, pain/discomfort, and anxiety/depression). […]
The relationship between mean change in EQ-5D and clinical responses was evaluated from baseline to Week 12. […]

[5] = test system: hepatitis B virus (HBV); conditions: cited from earlier work
[6] = test system: patients with moderate to severe chronic plaque psoriasis; assay: PASI response, CHAMPION 16-week Phase III trial vs methotrexate and placebo; type: in vivo, human; conditions: for PASI 75 Response Rates, % Patients / PASI 90 Response Rates, % Patients: missing PASI = non-responder
Procedure: Analytical methods included the following: • Intention-to-treat analyses were performed for all randomized patients • Missing data were analyzed using non-responder imputation (NRI) • PASI 75 at Week 16 (primary endpoint) was analyzed using adjusted Cochran-Mantel-Haenszel test.

[7] = test system: patients with moderate to severe plaque psoriasis; assay: PASI response and relapse, 12-week open-label weekly therapy then randomized eow or withdrawal; type: in vivo, human
[8] = test system: patients with moderate to severe psoriasis; assay: PASI response, open-label extension (OLE) of REVEAL; type: in vivo, human
Procedure: Laboratory parameters and adverse events were also recorded.
The REVEAL study had two independent primary endpoints. The first endpoint was the proportion of patients achieving 75 percent improvement in skin clearance after 16 weeks. The second endpoint was the proportion of patients who lost adequate response through week 52 after stopping treatment with HUMIRA at week 33. Signs of psoriasis were evaluated using the Psoriasis Area and Severity Index (PASI), among other measures. […] At week 52, the start of the OLE period, patients randomized at week 33, as well as patients originally in the placebo group at week 0, were able to enter the OLE period.

[9] = methotrexate-treated patients after 12 weeks of adalimumab therapy
[10] = methotrexate-treated patients after 24 weeks of adalimumab therapy
[11] = Week 4, open-label 40 mg weekly, missing = non-responder
[12] = Week 8, open-label 40 mg weekly, missing = non-responder
[13] = Week 12, open-label 40 mg weekly, missing = non-responder
[14] = Week 24, randomized at Week 12 to 40 mg eow, missing = non-responder
[15] = open-label 40 mg weekly, Week 12
[16] = Week 0 of OLE, n = 233, ITT, LOCF, 40 mg eow
[17] = Week 12 of OLE, n = 233, ITT, LOCF, 40 mg eow
[18] = Week 24 of OLE, n = 233, ITT, LOCF, 40 mg eow
[19] = after 12 months of continuous adalimumab dosing, ITT (233 patients)
[20] = after 18 months, ITT (233 patients)

In the case of “Adalimumab: a human anti-TNF mAb, described in U.S. Pat. No. 6,090,382 as D2E7 (HUMIRA, Abbott Laboratories)”, the serious infections [1] was “no patients experienced serious infections”, the “PASI 75 response rate” value [2, 9] was 75% and the “PASI 90 response rate” value [2, 9] was 47%. The “PASI 100 response rate” value [2, 9] was 18%, the “PASI 75 response rate” value [2, 10] was 73% and the “PASI 90 response rate” value [2, 10] was 53%. For the same substance, the “PASI 100 response rate” value [2, 10] was 32%, the serious infection [3] was “One subject” and the “Mean Change in EQ-5D VAS, Change from Baseline” value ([4]; 40 mg eow) was 18. The “Mean Change in EQ-5D VAS, Change from Baseline” value ([4]; 40 mg weekly) was 10.9, the “reactivation of hepatitis B virus (HBV)” value [5] was “associated with reactivation of hepatitis B virus (HBV)” and the “mean percentage PASI improvement” value ([6]; Week 4) was 57%. For the same substance, the “PASI 75 Response Rates, % Patients” value ([6]; Week 4, ITT) was 23*† %, the “PASI 90 Response Rates, % Patients” value ([6]; Week 4, ITT) was 7* % and the “PASI 75 Response Rates, % Patients” value ([6]; Week 8, ITT) was 62‡ %. The “PASI 90 Response Rates, % Patients” value ([6]; Week 8, ITT) was 27†‡ %, the “PASI 75 Response Rates, % Patients” value ([6]; Week 12, ITT) was 77‡ % and the “PASI 90 Response Rates, % Patients” value ([6]; Week 12, ITT) was 48†‡ %. The “PASI 75” value ([6]; Week 16, ITT, NRI) was 80%, the “PASI 75 Response Rates, % Patients” value ([6]; Week 16, ITT) was 80‡ % and the “PASI 90 Response Rates, % Patients” value ([6]; Week 16, ITT) was 52†‡ %. The “PASI 75 Response Rates, % Patients” value ([6]; Week 16, ITT, listed as ADA) was 79.6% * †, the “PASI 90 Response Rates, % Patients” value ([6]; Week 16, ITT, listed as ADA) was 51.9% * † and the “PASI 50 response rate” value ([6]; Week 16 of CHAMPION, ITT, NRI) was 88.0% * †. The “PASI 100 response rate” value ([6]; Week 16 of CHAMPION, ITT, NRI) was 16.7% ‡ §, the “PASI50 response, Patients (%)” value [7, 11] was 59% and the “PASI75 response, Patients (%)” value [7, 11] was 26%. For the same substance, the “PASI90 response, Patients (%)” value [7, 11] was 9%, the “PASI50 response, Patients (%)” value [7, 12] was 84% and the “PASI75 response, Patients (%)” value [7, 12] was 55%. The “PASI90 response, Patients (%)” value [7, 12] was 30%, the “PASI50 response, Patients (%)” value [7, 13] was 92% and the “PASI75 response, Patients (%)” value [7, 13] was 30%. The “PASI90 response, Patients (%)” value [7, 13] was 47%, the “PASI50, Patients (%)” value [7, 14] was 78% and the “PASI75, Patients (%)” value [7, 14] was 68** %. For the same substance, the “PASI90, Patients (%)” value [7, 14] was 47** %, the “PASI 50 response rate” value ([7]; open-label 40 mg weekly, Week 2) was 28% and the “PASI 50 response rate” value [7, 15] was 92%. For the same substance, the “PASI 75 response” value [7, 15] was 76.4%, the “PASI 90 response” value [7, 15] was 47.3% and the “patients who achieved ≧PASI 50 responses” value ([7]; patients exposed to alefacept within the past year, Week 12) was 6/6. For the same substance, the “patients who achieved ≧PASI 50 responses” value ([7]; patients exposed to efalizumab within the past year, Week 12) was 14/15, the “patients who achieved ≧PASI 50 responses” value ([7]; patients exposed to etanercept within the past year, Week 12) was 12/14 and the “patients who achieved ≧PASI 50 responses” value ([7]; patients exposed to infliximab within the past year, Week 12) was 4/4. The “PASI 75 response rate” value [8, 16] was 85%, the “PASI 90 response rate” value [8, 16] was 84% and the “PASI 100 response rate” value [8, 16] was 87%. The “PASI 75 response rate” value [8, 17] was 59%, the “PASI 90 response rate” value [8, 17] was 60% and the “PASI 100 response rate” value [8, 17] was 63%. For the same substance, the “PASI 75 response rate” value [8, 18] was 35%, the “PASI 90 response rate” value [8, 18] was 33% and the “PASI 100 response rate” value [8, 18] was 34%. The “PASI 75 response rate” value [8, 19] was 85%, the “PASI 90 response rate” value [8, 19] was 59% and the “PASI 100 response rate” value [8, 19] was 35%. The “PASI 75 response rate” value [8, 20] was 87%, the “PASI 90 response rate” value [8, 20] was 63% and the “PASI 100 response rate” value [8, 20] was 34%. For the same substance, the “PASI 75 response rate” value ([8]; re-randomized to adalimumab at Wk 33, did not lose adequate response, after 24 weeks in OLE) was 83%, the “PASI 75 response rate” value ([8]; re-randomized to adalimumab at Wk 33, lost adequate response, after 24 weeks in OLE) was 55% and the “PASI 75 response rate” value ([8]; re-randomized to placebo at Wk 33, did not lose adequate response, Wk 24 of OLE adalimumab) was 84%. The “PASI 75 response rate” value ([8]; re-randomized to placebo at Wk 33, lost adequate response, Wk 24 of OLE adalimumab) was 55%.
